The record followed here is patent publication US5116832A, “Penem derivatives production and use thereof” (Suntory Limited, priority 1986, dated 1992).

Structures are written as SMILES.

The target in data set [1] is T1, purified human renal dehydropeptidase (Homo sapiens, UniProt P16444).
T1 sequence (P16444 17-411): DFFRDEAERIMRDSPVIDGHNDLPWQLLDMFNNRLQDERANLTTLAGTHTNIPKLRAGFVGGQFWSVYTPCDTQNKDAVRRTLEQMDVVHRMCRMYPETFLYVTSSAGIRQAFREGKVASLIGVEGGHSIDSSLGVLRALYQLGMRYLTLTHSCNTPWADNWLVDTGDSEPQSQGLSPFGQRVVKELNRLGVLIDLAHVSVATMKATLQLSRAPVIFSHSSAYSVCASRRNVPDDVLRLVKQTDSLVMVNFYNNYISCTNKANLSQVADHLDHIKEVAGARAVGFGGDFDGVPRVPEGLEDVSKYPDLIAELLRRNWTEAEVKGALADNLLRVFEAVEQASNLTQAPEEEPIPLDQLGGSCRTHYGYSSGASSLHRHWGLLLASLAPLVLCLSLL
The data set can be described thus: Stability test against renal dehydropeptidase. In kind it is in vitro ADME. Particulars: for half-life at 100 µM: human, purified renal dehydropeptidase, pH 7. As to the method: Method: 0.325 μ/ml (final concentration) of purified human renal dehydropeptidase and 100 μM (final concentration) of each test compound were heated to 37° C. in 50 mM of Tris/HCl buffer (pH 7.0) and samples were collected at planned hours. Remaining amounts of the compound in the samples were analyzed quantitatively and the half-life period of each compound was calculated.

The nature of another data set: Acute toxicity test. Particulars: mouse, in vivo. From the text:
Among the novel compounds as obtained according to the present invention, the compound (27) was selected to conduct an acute toxicity test. Mice of ICR strain (4-weeks aged), being used as an experimental animal, were given the compound through oral and intravenous routes.

The subject of another data set is S. aureus Smith. The data set can be described thus: Therapeutic effect on the experimental infection in mice (S. aureus Smith). To be noted: Staphylococcus aureus, sc, 120 h, S. aureus Smith 3.8 × 10^6 colony forming unit, compound subcut. In kind it is in vivo.
Another data set has as its system E. coli KC-14. The data set can be described thus: Therapeutic effect on the experimental infection in mice (E. coli KC-14). In kind it is in vivo. To be noted: Escherichia coli, E. coli KC-14 4.8 × 10^5 colony forming unit intraperitoneally, survival 5 days later, male ICR mice. As to the method:
Among the novel compounds as obtained according to the present ivention, the compound (27) was used to carry out a therapy experiment with infected animals. With male mice of ICR strain (5-weeks aged, weighing from 23 to 27 g) being employed as an experimental animal, E. coli KC-14 was inoculate intraperitoneally to the mice, and, 2 hours later, the compound (27) was administered subcutaneously or orally.

A word on the half-life: it is how long it takes for the measured level to halve. The term ED50 denotes the dose that gives a 50% effect, or the effect in half of the subjects. A high value points to weaker potency. For the molecule `C[C@@H](O)[C@H]1C(=O)N2C(C(=O)O)=C(CC3CCOC3)S[C@H]12` (stereo partly shown) [Compound 27], the “stability against renal dehydropeptidase (in words)” value in data set [1] is “more stable than Sch 29482 and Imipenem”. Besides, the half-life at 100 µM in data set [1] was 3.81 h. The “survival in acute toxicity test” value in “Acute toxicity test” (iv) and in the data set “Acute toxicity test” (po) was “all found to survive” each time. In addition, the ED50 in the data set with S. aureus Smith turned out to be 1.11 mg/kg; with E. coli KC-14 (KC14, 120 h, compound oral 2 hours later), 9.5 mg/kg; in the data set on E. coli KC-14 (KC14, ip, 120 h, compound subcut. 2 hours later) it was 3 mg/kg.

Regarding `C[C@@H](O)[C@H]1C(=O)N2C(C(=O)O)=C(SCCN=CN)C[C@H]12` [Imipenem], the “Remaining amount after 9 hours” value in data set [1] (100 μM test compound, human renal dehydropeptidase, 37° C., 50 mM Tris/HCl buffer pH 7.0, 9 hours) turned out to be 14.7 µg/mL. Further, the half-life at 100 µM in data set [1] is 3.02 h.

`CCSC1=C(C(=O)O)N2C(=O)[C@H]([C@@H](C)O)[C@H]2S1` [Sch 29482] had a half-life at 100 µM in data set [1] of 1.44 h.
